Source: paper PMC10891904 (Pharmaceuticals, 2024)

Tests used:
[1] = tested on: HepG2 (human liver cancer) cells; assay: Cell viability, MTT assay, HepG2; format: cell-based
Protocol: (§1) HepG2, MCF7, and THLE2 cells were initially seeded at a density of 1 × 10^4 cells per well (100 μL per well) in DMEM medium. These cultures were then incubated at 37 °C in a 5% CO2 environment for 24 h to attain confluency levels ranging from 70% to 80%. […] The cells were allowed to culture for an additional 24 h.
(§2) After the incubation period, 10 μL of a 12 mM MTT stock solution (5 mg/mL MTT in sterile PBS) was introduced into each well. The plate was incubated for 4 h at 37 °C. Following this, the MTT solution was removed, and the purple formazan crystals that had developed at the well bottoms were dissolved by adding 100 μL of DMSO, allowing for a 20 min incubation. A negative control was included, which involved adding 10 μL of the MTT stock solution to 100 μL of medium alone.
(§3) The absorbance at 570 nm was subsequently measured using an ELISA reader (StatFax-2100, Awareness Technology, Inc., Palm City, FL, USA). […] Sigmoidal and dose-dependent curves were created to visualize the experimental results. These assays were conducted in triplicate and were repeated in three independent experiments.

[2] = tested on: THLE2 (healthy human liver) cells; assay: Cell viability, MTT assay, THLE2; format: cell-based
Protocol: as §1, §2, §3

rabbit 5-LOX = target: T1, rabbit 5-LOX (Oryctolagus cuniculus, UniProt G1SNX0); assay: In vitro 5-LOX inhibition assay (enzyme kit); format: biochemical; settings: mean of three values
T1 construct: purchased Cayman Chemical 560131
T1 sequence (G1SNX0 1-674): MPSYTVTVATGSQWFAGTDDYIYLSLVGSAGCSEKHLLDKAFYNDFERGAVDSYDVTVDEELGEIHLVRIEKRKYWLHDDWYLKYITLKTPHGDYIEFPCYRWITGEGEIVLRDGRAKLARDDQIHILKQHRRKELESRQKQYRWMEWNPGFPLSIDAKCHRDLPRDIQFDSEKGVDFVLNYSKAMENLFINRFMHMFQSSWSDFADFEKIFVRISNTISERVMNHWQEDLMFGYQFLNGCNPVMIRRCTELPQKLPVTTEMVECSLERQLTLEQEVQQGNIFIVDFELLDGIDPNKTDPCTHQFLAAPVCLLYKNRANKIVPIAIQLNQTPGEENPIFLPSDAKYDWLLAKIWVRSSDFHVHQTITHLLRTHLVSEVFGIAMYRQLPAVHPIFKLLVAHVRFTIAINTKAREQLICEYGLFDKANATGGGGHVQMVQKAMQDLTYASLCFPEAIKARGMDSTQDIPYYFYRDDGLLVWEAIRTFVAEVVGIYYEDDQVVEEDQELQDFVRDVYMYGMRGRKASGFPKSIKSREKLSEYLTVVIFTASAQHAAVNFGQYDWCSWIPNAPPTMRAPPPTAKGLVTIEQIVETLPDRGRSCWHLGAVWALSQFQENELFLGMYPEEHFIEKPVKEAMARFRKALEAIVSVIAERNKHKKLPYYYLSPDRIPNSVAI

[3] = tested on: MCF7 (human breast cancer) cells; assay: Cell viability, MTT assay, MCF7; format: cell-based; settings: 24 h
Protocol: as §1, §2, §3

LPS-inflamed HepG2 cells [4] = settings: 1/10 of IC50, LPS 1 μg/mL, 24 h
Protocol: (§4) HepG2, MCF7, and THLE2 cells were initially seeded in a culture medium comprising DMEM supplemented with 10% FCS and 1% penicillin/streptomycin solution. These cultures were maintained at 37 °C in a 5% CO2 environment. The culture medium was refreshed twice a week, and when the cell cultures reached approximately 80% confluence, they were subcultured after trypsinization (0.05%, w/v). To mitigate mitogenic effects, the cells were pre-cultured in serum-free DMEM for a minimum of 4 h.
(§5) To induce inflammation, 1 μg/mL of LPS was added to the cultures, as previously described. Subsequently, the cells were allowed to incubate for a duration of 24 h.
(§6) Inflammatory marker levels, including TNFα, IL1b, COX-1, COX-2, and 5-LOX, were quantified following established procedures. In short, the cells were seeded at a density of 5 × 10^4 cells per well in flat-bottomed 96-well plates. […] The cells were then incubated at 37 °C for a period of 24 h.
(§7) After incubation, the culture medium was carefully collected into micro-centrifuge tubes and subjected to centrifugation at 1500 rpm for 10 min. The resulting supernatant was transferred to new micro-centrifuge tubes, and the levels of TNFα, IL1b, COX-1, COX-2, and 5-LOX were determined using an ELISA kit (TNFα, IL1b, COX-1, COX-2, and 5-LOX were determined using enzyme-linked immunoassay (ELISA) kits from Sigma Aldrich (Saint Louis, MO, USA), Abcam (Cambridge, UK), and Aviva Systems Biology (San Diego, CA, USA).

LPS-inflamed MCF7 cells [5] = settings: 1/10 of IC50, LPS 1 μg/mL, 24 h, G3 vs G2
Protocol: as §4, §5, §6, §7

LPS-inflamed THLE2 cells [6] = settings: 1/10 of IC50, LPS 1 μg/mL, 24 h, G3 vs G2
Protocol: as §4, §5, §6, §7

LPS-inflamed HepG2 cells [7] = settings: qPCR, β-actin reference, G3 vs G2
Protocol: as §4, §5
(§8) To isolate total RNA from HepG2, MCF7, and THLE2 cells, the RNeasy Mini kit was employed in accordance with the manufacturer’s instructions and established methods. Subsequently, cDNA was synthesized from […] of the total RNA using Quantiscript reverse transcriptase. The resulting cDNA served as a template for evaluating the relative expression of target gene mRNAs, with β-actin serving as an internal reference. To amplify the isolated cDNA, 2X Maxima SYBR Green/ROX qPCR Master Mix was used, following the manufacturer’s protocol, and specific gene primers designed for the purpose.
(§9) The reaction volume and qPCR thermal conditions were consistent with those previously described. Upon completion of the final cycle, the temperature was increased from 60 to 95 °C to generate a melt curve. The relative change in gene expression was presented as a fold change, determined using quantities at the critical threshold (Ct) and the 2^−∆∆Ct method (Table 5).

LPS-inflamed MCF7 cells [8] = settings: qPCR, β-actin reference, G3 vs G2
Protocol: as §4, §5, §8, §9

LPS-inflamed THLE2 cells [9] = settings: qPCR, β-actin reference, G3 vs G2
Protocol: as §4, §5, §8, §9

LPS-inflamed HepG2 cells [10] = settings: 1/10 of LC50, LPS 1 µg/mL, 24 h, G3 relative to G2
Protocol: (§10) The levels of malondialdehyde (MDA), superoxide dismutase (SOD), catalase (CAT), and glutathione peroxidase (GPX) were quantified using commercial kits, following established protocols. […] Subsequently, the cells were exposed to 1 µg/mL of LPS for 24 h.
(§11) After this incubation period, the cells were rinsed with PBS, harvested from the plates, and suspended in 1 mL of ice-cold PBS (0.1 M, containing 0.05 mM EDTA). The cell suspension was homogenized, and the resulting homogenate was then subjected to centrifugation at 4000× g for 10 min at 4 °C. The obtained supernatants were preserved at −80 °C until they were ready for analysis. The protein concentration in each of the supernatant samples was determined using the Bradford assay.

LPS-inflamed MCF7 cells [11] = settings: 1/10 of LC50, LPS 1 µg/mL, 24 h, G3 relative to G2
Protocol: as §10, §11

LPS-inflamed THLE2 cells [12] = settings: 1/10 of LC50, LPS 1 µg/mL, 24 h, G3 compared to G2
Protocol: as §10, §11

COX-1/COX-2/5-LOX = settings: from experimental IC50
ovine COX-1 = ovine COX-1 (Ovis aries, UniProt P05979); assay: biochemical
human recombinant COX-2 = human recombinant COX-2 (Homo sapiens, UniProt P35354); assay: biochemical
human recombinant COX-2, sequence (P35354 18-604): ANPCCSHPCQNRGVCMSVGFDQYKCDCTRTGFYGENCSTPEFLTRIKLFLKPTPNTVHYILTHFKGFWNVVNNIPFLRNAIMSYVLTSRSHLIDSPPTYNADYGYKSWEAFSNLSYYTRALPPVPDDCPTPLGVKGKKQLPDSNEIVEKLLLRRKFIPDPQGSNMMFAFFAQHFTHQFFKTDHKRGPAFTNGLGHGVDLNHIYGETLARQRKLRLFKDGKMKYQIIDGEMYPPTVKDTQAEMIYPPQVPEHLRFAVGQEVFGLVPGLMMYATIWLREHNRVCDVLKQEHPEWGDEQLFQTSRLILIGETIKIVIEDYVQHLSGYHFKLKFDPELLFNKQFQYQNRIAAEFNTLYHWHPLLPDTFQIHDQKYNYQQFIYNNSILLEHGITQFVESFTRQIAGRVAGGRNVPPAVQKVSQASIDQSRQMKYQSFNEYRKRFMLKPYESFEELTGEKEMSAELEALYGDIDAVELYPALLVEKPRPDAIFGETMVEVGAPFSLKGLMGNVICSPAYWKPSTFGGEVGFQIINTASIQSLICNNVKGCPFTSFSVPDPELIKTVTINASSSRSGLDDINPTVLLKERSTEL

ovine COX-1, sequence (P05979 25-600): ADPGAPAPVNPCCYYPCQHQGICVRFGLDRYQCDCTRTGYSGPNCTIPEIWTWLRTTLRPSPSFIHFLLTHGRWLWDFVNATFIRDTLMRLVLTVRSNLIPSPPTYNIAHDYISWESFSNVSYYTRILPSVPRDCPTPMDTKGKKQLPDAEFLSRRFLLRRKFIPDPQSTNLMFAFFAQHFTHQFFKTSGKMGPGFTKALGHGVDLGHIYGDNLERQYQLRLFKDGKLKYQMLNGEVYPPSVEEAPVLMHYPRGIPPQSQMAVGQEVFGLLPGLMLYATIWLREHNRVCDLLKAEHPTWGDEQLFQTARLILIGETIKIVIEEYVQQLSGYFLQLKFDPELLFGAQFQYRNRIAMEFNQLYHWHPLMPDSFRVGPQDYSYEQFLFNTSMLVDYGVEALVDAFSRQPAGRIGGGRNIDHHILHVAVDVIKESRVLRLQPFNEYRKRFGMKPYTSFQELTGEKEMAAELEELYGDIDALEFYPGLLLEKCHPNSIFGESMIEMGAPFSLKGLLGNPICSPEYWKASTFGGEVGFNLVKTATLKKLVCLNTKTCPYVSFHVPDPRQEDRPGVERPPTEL

`N.N.[Cl][Pt][Cl]` [Cisplatin] was tested, and the IC50 ([1]; 24 h) was 66.9 ± 1.8 µM and the IC50 ([2]; 24 h) was 2140 ± 95.3 µM.

With `Cc1ccc(-c2cc(C(F)(F)F)nn2-c2ccc(S(N)(=O)=O)cc2)cc1` [Celecoxib] the IC50 (rabbit 5-LOX) was 16.7 µM.

`Nc1ccc(S(=O)(=O)Nc2ncccn2)cc1` [Sulfadiazine] showed an IC50 (rabbit 5-LOX) of 19.1 µM, an IC50 ([1]; Homo sapiens, HepG2, 24 h) of 246 ± 4.1 µM and an IC50 [3] of 216 ± 3.8 µM. For the same compound, the IC50 ([2]; Homo sapiens, THLE-2, 24 h) was 4160 ± 90.5 µM, the COX-2 level (LPS-inflamed HepG2 cells [4]; G3 vs G2) was “significantly reduced” and the IL1b level (LPS-inflamed HepG2 cells [4]; G3 vs G2) was “significantly reduced”. For the same compound, the TNFα level (LPS-inflamed HepG2 cells [4]; G3 vs untreated LPS-inflamed cells (G2)) was “significantly reduced”, the COX-2 level (LPS-inflamed MCF7 cells [5]) was “significantly reduced” and the IL1b level (LPS-inflamed MCF7 cells [5]) was “significantly reduced”. The TNFα level (LPS-inflamed MCF7 cells [5]) was “significantly reduced”, the 5-LOX level (LPS-inflamed THLE2 cells [6]) was “significantly reduced” and the COX-2 level (LPS-inflamed THLE2 cells [6]) was “significantly reduced”. For the same compound, the IL1b level (LPS-inflamed THLE2 cells [6]) was “significantly reduced”, the TNFα level (LPS-inflamed THLE2 cells [6]) was “significantly reduced” and the 5-LOX gene expression (LPS-inflamed HepG2 cells [7]) was “significantly blunted”. The COX-1 gene expression (LPS-inflamed HepG2 cells [7]) was “significantly blunted”, the COX-2 gene expression (LPS-inflamed HepG2 cells [7]) was “significantly blunted” and the IL1b gene expression (LPS-inflamed HepG2 cells [7]) was “significantly blunted”. For the same compound, the TNFα gene expression (LPS-inflamed HepG2 cells [7]) was “significantly blunted”, the 5-LOX gene expression (LPS-inflamed MCF7 cells [8]) was “significantly blunted” and the COX-1 gene expression (LPS-inflamed MCF7 cells [8]) was “significantly blunted”. The COX-2 gene expression (LPS-inflamed MCF7 cells [8]) was “significantly blunted”, the IL1b gene expression (LPS-inflamed MCF7 cells [8]) was “significantly blunted” and the TNFα gene expression (LPS-inflamed MCF7 cells [8]) was “significantly blunted”. The 5-LOX gene expression (LPS-inflamed THLE2 cells [9]) was “significantly blunted”, the COX-1 gene expression (LPS-inflamed THLE2 cells [9]) was “not significant” and the COX-2 gene expression (LPS-inflamed THLE2 cells [9]) was “significantly blunted”. The IL1b gene expression (LPS-inflamed THLE2 cells [9]) was “significantly blunted”, the TNFα gene expression (LPS-inflamed THLE2 cells [9]) was “significantly blunted” and the CAT levels (LPS-inflamed HepG2 cells [10]) was “increased levels”. The GPX levels (LPS-inflamed HepG2 cells [10]) was “increased levels”, the MDA levels (LPS-inflamed HepG2 cells [10]) was “significant augmentation” and the CAT levels (LPS-inflamed MCF7 cells [11]) was “increased levels”. The MDA levels (LPS-inflamed MCF7 cells [11]) was “significant augmentation”, the CAT levels (LPS-inflamed THLE2 cells [12]) was “significant elevation” and the GPX levels (LPS-inflamed THLE2 cells [12]) was “significant elevation”. For the same compound, the MDA levels (LPS-inflamed THLE2 cells [12]) was “substantial reduction”, the SOD levels (LPS-inflamed THLE2 cells [12]) was “significant elevation” and the “experimental 5-LOX/COX-1 selectivity” value (COX-1/COX-2/5-LOX) was 1. The “experimental COX-2/COX-1 selectivity” value (COX-1/COX-2/5-LOX) was 3.6, the IC50 (ovine COX-1) was 18.4 µM and the IC50 (human recombinant COX-2) was 5.27 µM.
